Source: patent US20100216761A1, “NOVEL AZETIDINONES USEFUL AS INHIBITORS OF ELASTASE” (priority 2007, published 2010)
pIC50: −log10 of the molar value.

Legend:
[1] = Liver microsome stability in 4 species: monkey; type: in vitro ADME; conditions: substrate 0.5 uM, microsome 0.25 mg/mL
Experimental: In a separate experiment as exemplified in Table 3, the stability of the current Example 1 and the comparator Compound #290 in incubations with microsome preparations from 4 different species were also determined (Note 5).
X. S. Tong, et. al., J. of Chromatography, 2006, 833, 165.

CYP2C9 = biological target: T1, CYP2C9 (Homo sapiens, UniProt P11712); assay: CYP-P450 reversible inhibition, 2C9; type: in vitro ADME; conditions: probe fluorogenic probe (not named); human liver microsomes or recombinant P450 microsomes; fluorescent probe
T1 construct: host or cells: human liver microsomes or recombinant P450 microsomes
T1 sequence (P11712 whole entry): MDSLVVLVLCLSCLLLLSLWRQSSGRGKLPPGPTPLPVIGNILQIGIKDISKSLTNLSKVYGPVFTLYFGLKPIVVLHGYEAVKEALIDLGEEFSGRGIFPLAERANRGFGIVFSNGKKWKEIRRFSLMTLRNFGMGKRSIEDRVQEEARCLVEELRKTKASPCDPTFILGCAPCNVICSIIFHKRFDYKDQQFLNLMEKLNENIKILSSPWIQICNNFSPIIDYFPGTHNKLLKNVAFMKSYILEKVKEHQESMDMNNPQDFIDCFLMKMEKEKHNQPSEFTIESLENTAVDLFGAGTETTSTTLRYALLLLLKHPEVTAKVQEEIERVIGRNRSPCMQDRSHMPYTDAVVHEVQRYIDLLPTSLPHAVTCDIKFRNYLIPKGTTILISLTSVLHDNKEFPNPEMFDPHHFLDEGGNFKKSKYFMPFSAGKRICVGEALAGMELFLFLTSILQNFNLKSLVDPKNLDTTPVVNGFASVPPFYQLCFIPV
Experimental: (§1) This assay measured the reversible inhibition of the test compounds against three cytochrome P450 isozymes (CYP-P450 3A4, 2C9 and 2D6) in an automated screening formate. […] Cumene hydroperoxide, NADPH or NADPH regenerating systems can be used as electron donors for the P450 catalytic cycle. Control incubations containing no inhibitor or no fluorescent probe were performed to evaluate the 100% and 0% activities, respectively. The activity of P450 enzyme was evaluated in the presence of 0.137, 0.273, 0.547, 1.094, 2.188, 4.375, 8.750, 17.5, 35.0 and 70.0 μM concentrations of the test compounds. Inhibition curves were generated and IC50 values were calculated for each tested compound using standard techniques.

[2] = biological target: T2, Human Leukocyte Elastase (HLE) (Homo sapiens, UniProt P08246); assay: HLE time-dependent reactivation (off-rate) assay; type: biochemical; conditions: head-to-head with Examples 1 and 3
T2 construct: The PMN lysates were prepared by isolating human neutrophils from whole blood; from tissue; host or cells: human neutrophils (PMN) isolated from whole blood, lysed by sonication in PBS
T2 sequence (P08246 30-267): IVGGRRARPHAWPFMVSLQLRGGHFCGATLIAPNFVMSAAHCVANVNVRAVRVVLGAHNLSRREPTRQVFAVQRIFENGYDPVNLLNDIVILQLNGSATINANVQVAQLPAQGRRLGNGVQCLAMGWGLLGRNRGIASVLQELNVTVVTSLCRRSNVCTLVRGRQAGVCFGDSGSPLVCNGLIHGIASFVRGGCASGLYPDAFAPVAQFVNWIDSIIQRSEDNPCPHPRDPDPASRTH
Experimental: An important and desirable aspect of these mechanism-based HLE inhibitors is also the extent to which the enzyme remains inactivated or, in other words, the rate at which the modified inhibitor comes off the enzyme after the inactivation event has occurred and which then gives back the active HLE enzyme (see Note 2c and 4). This property was assessed in a time-dependent reactivation assay and the results were calculated as a first-order rate constant expressed as their half-lives in hours (t1/2). […] Under head-to-head conditions (n=2) with Examples 1 and 3, the off-rate for the comparator Compound #290 of U.S. Pat. No. 5,591,737 was determined to be 7.1 hrs, or about 2.5-2.6 times as fast.
Elastase was incubated with 100-fold molar excess of inhibitor in TES buffer (0.045M TES, 0.45M NaCl, pH 7.5, 0.1% BSA) at room temperature for 60 minutes. After the incubation was complete, the samples were loaded onto prepared columns (Micro BioSpin Chromatography Columns-Bio-Gel P-6 Columns Bio-Rad Cat# 732-6221; prepared as directed by the manufacturer). […] At specific time points, the filtrate was monitored for elastase activity by adding the filtrate to 1 mM substrate (MeoSucc-AAPV-pNA; Elastin Products Cat# FH237) in TES buffer (0.045M TES, 0.45M NaCl, pH 7.5) and measuring the absorbance at 410 nm. The absorbance was monitored every 10 seconds for 5 minutes. […]

CYP3A4 = CYP3A4 (Homo sapiens, UniProt P08684); assay: CYP-P450 reversible inhibition, 3A4; type: in vitro ADME; design: host or cells: human liver microsomes or recombinant P450 microsomes; conditions: probe fluorogenic probe (not named); human liver microsomes or recombinant P450 microsomes; fluorescent probe
CYP3A4, sequence (P08684 whole entry): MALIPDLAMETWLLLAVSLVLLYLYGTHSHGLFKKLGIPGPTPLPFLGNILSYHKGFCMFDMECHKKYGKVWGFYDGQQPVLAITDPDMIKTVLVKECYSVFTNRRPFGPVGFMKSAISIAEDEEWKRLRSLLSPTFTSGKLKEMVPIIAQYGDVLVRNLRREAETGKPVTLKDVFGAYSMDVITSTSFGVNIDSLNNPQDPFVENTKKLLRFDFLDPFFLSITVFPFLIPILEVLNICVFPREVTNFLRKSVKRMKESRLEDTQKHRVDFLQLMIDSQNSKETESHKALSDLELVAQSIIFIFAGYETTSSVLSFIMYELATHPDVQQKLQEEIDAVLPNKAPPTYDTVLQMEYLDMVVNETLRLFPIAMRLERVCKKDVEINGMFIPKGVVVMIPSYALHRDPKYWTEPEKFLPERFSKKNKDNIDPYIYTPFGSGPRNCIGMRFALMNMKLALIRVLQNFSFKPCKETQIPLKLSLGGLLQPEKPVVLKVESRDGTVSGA
Experimental: as §1

Row | Compound | % Left @ 30 min [1] | % Left @ 60 min [1] | pIC50 (CYP2C9) | off-rate relative to Examples 1 and 3 (times as fast) [2] | pIC50 (CYP3A4)
1 | CCC[C@@H](NC(=O)N1C(=O)C(CC)(CC)[C@@H]1Oc1ccc(C(=O)N(C)CCN(C)C)cc1)c1ccc(OC)cc1 [Compound #290, reference compound] | 90% | 67% | < 5.10 | 2.5-2.6 times | < 5.10
2 | CCC[C@@H](NC(=O)N1C(=O)C(CC)(CC)[C@@H]1Oc1ccc(C(=O)N(CC)CCN(C)C)cc1)c1ccc(OC(F)(F)F)cc1 [Example 1, 2-(S)-[4-(((2-(Dimethylamino)ethyl)ethylamino)carbonyl)phenoxy]-3,3-diethyl-N-[1-(R)-(4-(trifluoromethoxy)phenyl)butyl]-4-oxo-1-azetidinecarboxamide] | 91% | 77% | < 5.10 | – | < 5.10
